Here are results for four compounds from patent US8802439B2, “Methods for enhancing infectivity of retroviruses” (priority 2009, dated 2014).

Entries after “also recorded” stand apart in the source; their conditions may differ.

Assay [1] has as its system HCV. Briefly: HCV infectivity titer of supernatants from persistently infected HUH-7 cells. It counts as cell-based. The note with it: PiB 16 μM and 8 μM, 1 hour pre-treatment plus 9 hours at 37° C. Here is the method: Cells persistently infected with HCV were treated with vehicle (DMSO), an MTP inhibitor (BMS-200150) capable of inhibiting HCV secretion, or with two doses of PiB (16 μM and 8 μM). After 1 hour of pre-treatment at 37° C., cells were washed with warm PBS and further incubated in normal medium containing the same drugs for an additional 9 hours at 37° C. Cell supernatants containing infectious HCV were collected for infectivity titer determination.
Infection assays for HCV: Persistently infected cells were treated with vehicle (DMSO), an MTP inhibitor (BMS-200150) capable of inhibiting HCV secretion, or with two doses of PiB (16 μM and 8 μM). After 1 hour of pre-treatment at 37° C., cells were washed with warm PBS and further incubated in normal medium containing the same inhibitors for an additional 9 hours at 37° C. Cell supernatants containing infectious HCV were collected for infectivity titer determination. […] Note that Pin1 is able to block HIV-1 in the HUH-7 cell line used to propagate HCV.
Persistently infected HUH-7 cells were treated with solvent DMSO (circles), or increasing concentrations of PiB (squares). After 1 hour of pre-treatment cells were washed and further incubated in normal medium containing the same inhibitors for an additional 9 hours at 37° C. Cell supernatants containing infectious HCV were collected for infectivity titer determination.

The target in assay [2] is Pin1 PPIase (Homo sapiens, UniProt Q13526). Particulars: Uchida et al. 2003; cited from earlier work.
For assay [3], the system named is HIV-1. Briefly: HIV-1 viral production in 293T producer cells, p24 ELISA of supernatants. The note with it: 293T cells transfected with NL4.3; 2.0 μM juglone, 2.0 μM or 10.0 μM PiB. It counts as cell-based. From the text:
Plasmids: Laboratory-adapted provirus NL4.3, and the CypA-independent NL4.3 CAi2 were kindly provided by Akio Adachi (Department of Virology, Institute of Health Biosciences, The University of Tokushima Graduate School, JAPAN). Mutant R9G89V was a gift from P. Gallay (TSR1) as were NL4.3-GFP and SIV-GFP (originally Dana Gabuzda, Dana Farber Cancer Institute). NL4.3 A92E was kindly provided by W. Phares (Genetics Unit, Novartis Forschungsinstitut, Vienna, Austria). R9Δgp160 plasmid clone was kindly provided by C. Aiken (Vanderbilt Medical Center). VSV-G (CMV-VSV-G) was kindly provided by D. Trono (École Polytechnique Fédérale de Lausanne). Both bMLV-GFP and nMLV-GFP in the form of pCIG3-N, pCIG3-B as well as pCNCG were kindly provided by J. Stoye (National Institute for Medical Research, UK). Isomerase mutant Pin1 (pFLAG-Pin1R68,69A) and WW-domain mutant Pin1 (pFLAG-Pin1 W34A) were constructed by site-directed mutagenesis. Pseudotyping experiments were performed using DNA constructs encoding the VSV-G generously provided by D. Trono. Human Pin1 was cloned into pFLAG (Sigma-Aldrich) making pFLAG-Pin1. Viruses were produced by transfection of 293T cells using either GeneJuice (Novagen) or calcium phosphate. […] All viruses were harvested 24-48 hours post-transfection and filtered (0.2-μM filter, Steriflip Millipore). […]

Assay [4] has as its system HIV-1. Briefly: Single-round infectivity on TZM-bl cells of HIV-1 produced in Pin1-inhibited 293T cells (Galacton-Star galactosidase assay). It counts as cell-based. From the text: Viral inocula from transfections above were normalized to equal virion particle number via p24 ELISA and used to infect target CD4^+ HeLa cells (1×10^5 TZM-bl). Infectivity was scored using the Galacton-Star enzymatic galactosidase activity assay, and infectivity quantified by relative […] units (R.F.U).
Plasmids: Laboratory-adapted provirus NL4.3, and the CypA-independent NL4.3 CAi2 were kindly provided by Akio Adachi (Department of Virology, Institute of Health Biosciences, The University of Tokushima Graduate School, JAPAN). Mutant R9G89V was a gift from P. Gallay (TSR1) as were NL4.3-GFP and SIV-GFP (originally Dana Gabuzda, Dana Farber Cancer Institute). NL4.3 A92E was kindly provided by W. Phares (Genetics Unit, Novartis Forschungsinstitut, Vienna, Austria). R9Δgp160 plasmid clone was kindly provided by C. Aiken (Vanderbilt Medical Center). VSV-G (CMV-VSV-G) was kindly provided by D. Trono (École Polytechnique Fédérale de Lausanne). Both bMLV-GFP and nMLV-GFP in the form of pCIG3-N, pCIG3-B as well as pCNCG were kindly provided by J. Stoye (National Institute for Medical Research, UK). Isomerase mutant Pin1 (pFLAG-Pin1R68,69A) and WW-domain mutant Pin1 (pFLAG-Pin1 W34A) were constructed by site-directed mutagenesis. Pseudotyping experiments were performed using DNA constructs encoding the VSV-G generously provided by D. Trono. Human Pin1 was cloned into pFLAG (Sigma-Aldrich) making pFLAG-Pin1. Viruses were produced by transfection of 293T cells using either GeneJuice (Novagen) or calcium phosphate. […] All viruses were harvested 24-48 hours post-transfection and filtered (0.2-μM filter, Steriflip Millipore). HIV-1 viruses were normalized by p24 ELISA (Alliance HIV-1 p24 Antigen ELISA Kit, Perkin Elmer), and/or were normalized via the EnzChek® Reverse Transcriptase Assay Kit (E-22064) (Molecular Probes).
Infection assays for retrovirus: Single-round infections: CD4^+ TZM-bl 100,000 cells/well/mL were seeded onto 24-well plates 24 hours prior to infection. These cells were infected in quadruplicate to 24-well plates. Infectivity was scored using an enzymatic galactosidase activity assay. Specifically, infected TZM-bl cells were washed and lysed, and 20 μl of lysate was transferred to a 96-well plate for detecting β-galactosidase activity. 100 μl of reaction buffer Galacton-Star substrate (Applied Biosystems, Bedford, Mass.), diluted 1:50, was added to 20 μl of lysate, and the light emission was measured over 1 second in a microplate luminometer after 30 minutes incubation. For human PBMC infections, cells were exposed to 10 ng of wild-type virus for 6 hours, washed, and split into two flasks: one with 10 μM PiB added on day 0 and 3, and one without PiB. Replication was monitored by p24 ELISA. For measuring infectivity of GFP-virus, 50,000 TZMb1, sMAGI, OMK, Vero, BSC-1 and CV-1 cells/well/mL were seeded onto 6-well plates respectively 24 hours prior to infection. Viruses were used to infect in duplicate wells, incubated for 48 hours, washed with PBS, trypsinized, fixed in 1% formaldehyde and subsequently analyzed by fluorescence-activated cell sorting (FACS) for percentage cells infected.
To examine a potential role for Pin1 in HIV-1 replication we used two inhibitors of Pin1: juglone and PiB. […] 293T cells were transfected with a proviral construct encoding wild-type HIV-1 in the presence or absence of PiB or juglone.

Assay [5] has as its target E. coli PPIase, parvulin (Escherichia coli, UniProt P0A9L5). The note with it: covalent modification of two cysteine residues, slow process; cited from earlier work.
The subject of assay [6] is other prolyl isomerases such as CypA or FKBP. Particulars: cited from earlier work.

Pin1 PPIase, sequence (Q13526 whole entry): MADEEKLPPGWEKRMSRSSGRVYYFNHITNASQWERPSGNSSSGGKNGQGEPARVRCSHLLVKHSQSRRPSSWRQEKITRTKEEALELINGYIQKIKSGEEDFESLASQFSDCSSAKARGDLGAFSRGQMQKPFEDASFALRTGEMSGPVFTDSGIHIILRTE
E. coli PPIase, parvulin, sequence (P0A9L5 whole entry): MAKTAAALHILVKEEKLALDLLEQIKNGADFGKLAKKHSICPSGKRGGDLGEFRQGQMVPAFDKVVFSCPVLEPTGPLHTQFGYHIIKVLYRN

`O=C1c2ccccc2CN1C1CCN(CCC(c2ccccc2)c2ccccc2)CC1` [BMS-200150]: the “infectious HCV in cell supernatants (infectivity titer)” value in assay [1] is reported as “virtual absence of particles”.

Take `CN1C(=O)c2ccc3c4c(ccc(c24)C1=O)C(=O)N(C)C3=O` [PiA, 2,7-dimethylbenzo[lmn][3,8]phenanthroline-1,3,6,8 (2H,7H)-tetrone]: in assay [2], the “inhibition of the PPIase activity of Pin1” value is recorded as “potently inhibit”. For the compound `CCOC(=O)CN1C(=O)c2ccc3c4ccc5c6c(ccc(c7ccc(c2c37)C1=O)c64)C(=O)N(CC(=O)OCC)C5=O` [PiJ, diethyl-1,3,8,10-tetrahydro-1,3,8,10-tetraoxoanthra[2,1,9-def:6,5,10-d′e′f′]diisoquinoline-2,9-diacetate], the “inhibition of the PPIase activity of Pin1” value in assay [2] is reported as “potently inhibit”. Take `O=C1C=CC(=O)c2c(O)cccc21` [juglone, 5-hydroxy-1,4-naphthoquinone]: the “viral production (HIV-1 capsid in viral supernatants by p24 ELISA)” value in assay [3] is “Neither inhibitor influences viral production; also recorded: do not alter viral production”. Further, the boost of infectivity in assay [4] stood at 2 fold. Further, the “inactivation of E. coli parvulin” value in assay [5] is given as “inactivates”. Also, in assay [6], the “inhibition of other PPIase families (CypA, FKBP)” value is listed as “do not inhibit; also recorded: not affected”.
